In patent US20090304744A1, “METHODS OF ENHANCING IMMUNE RESPONSE IN THE INTRADERMAL COMPARTMENT AND COMPOUNDS USEFUL THEREOF” (priority 2003, published 2009):
Where two headings read alike, the source gives them in different places.

How the values were obtained:
[1] = system: trivalent test antigen (New Calcdonia, Panama and B-Hong Kong); design: species or system Hartley Guinea Pigs; conditions: guinea pig, in vivo
guinea pig skin = assay: Guinea pig erythema Draize scoring after ID delivery of excipients; format: in vivo, Hartley guinea pigs; conditions: Tween 80 5%, Deoxycholate 0.1%, D-sorbitol 5%, Lutrol 15%; without antigen, 50 ul per injection, 34 gauge 1.0 mm; immediate, 1 h and 24 h readings
Excerpt: The methods of the invention provide fundamental principles and guidelines whereby optimum parameters may be determined for delivering immunogenic compositions to the dermal compartment (including epidermal and intradermal compartments) wherein the excipients have optimum adjuvant properties and the formulations of the invention have enhanced efficacy in comparison to when the same formulation is delivered using conventional modes of delivery, including intramuscular and subcutaneous delivery. The invention provides methods wherein the formulations of the invention have been screened to have optimum concentration ranges for delivery to the optimum depth of the intradermal compartment such that they have adjuvant properties, resulting in one or more of the following properties: minimal to no skin irritation as determined and assessed using conventional modes of analysis of skin reactions using visual methods such as Draize scoring (For a typical draize scoring analysis see table below); minimal to no hemolysis as determined using standard methods known in the art, and enhanced immune response as measured by enhanced seroconversion and/or enhanced antibody titers.
Erythema Draize scores for various excipients were determined using procedures described in Section 5.4, above. In one study, Tween™ 80 (5%), Deoxycholate (0.1%), D-sorbitol (5%) or Lutrol™ (15%) was administered (50 μl per injection) without the antigen to Hartley guinea pigs using 34 gauge, 1.0 mm needles. […] Deeper administrations will be necessary for deoycholate to be used reliably at this concentration. From left to right, the reading immediately after administration, the one-hour reading and the 24-hour reading.

[2] = system: Influenza A/Panama/2007/99 (H3N2); assay: HAI assay after ID microneedle immunization of rats with FLUZONE +/- Tween 80; format: in vivo, Brown Norway rats; conditions: for % Seroconversion (HAI Titre ≧ 10) / % Seroprotection (HAI Titre ≧ 40): day 21, Tween 80 at 5% where added
Procedure: Measurement of HA specific Antibody Titer by HAI: Sera were collected and used as test samples. Fresh cRBC reagent was prepared daily. Sodium Chloride solution (0.9%) was added to wells of a Falcon® Non-Tissue Culture Treated Plate, 96 well, U-Bottom with Low Evaporation Lid. Viral lysate stock (8 HA/50 μl) was added to wells. Appropriate volume of test serum was added to a single row or column of “start wells,” and a serial dilution was performed by transferring 50 μl of the serum dilution from the “start wells” into the next well, creating a 1:2 dilution. When completed, wells contained a serial serum dilution and a constant amount of viral lysate antigen, being 4 HA per well. cRBC reagent (0.5%, 50 μl) was added to each well, including negative control wells, which contained no HA. The assay was allowed to incubate for 45 minutes at room temperature, ensuring that the plate is not jostled. For determination, plates were tilted at a 70-degree angle for 5 minutes, and viewed on alight box.
HAI assays were performed with A-New Caledonia (H1N1), A-Panama (H3N2) and B-Hong Kong antigen as single test antigens and trivalent pools.
Female Brown Norway (BN) rats (n=10/group) were immunized by ID delivery using Microneedles (34 gauge needle inserted into a 3.5″ long catheter to an exposed needle length of 1.0 mm). ID delivery by Microneedles consisted of 2 bolus injections of 100 μl by hand to either side of the lower back of the rat, approximately 10 seconds in duration (each bolus), using an attached 1 cc syringe. Rats were immunized with either of two different doses of the 2003/2004 season of FLUZONE™ (Aventis Pasteur, Swiftwater, Pa.), for a total of 9µg (high dose) or 0.9µg (low dose) hemagglutinin (HA) per rat, 3µg or 0.3µg HA of each strain of influenza in the vaccine (A/New Calcdonia/20/99 H1N1, A/Panama/2007/99H3N2, and B/Hong Kong/1434/2002).
The rats were bled 21 days after immunization and their serum assayed for neutralizing antibody titres using the hemagglutination inhibition (HAI) assay, and for influenza-specific antibody titres by ELISA. Both assays were performed against the H3N2 strain of influenza in the FLUZONE™ formulation to characterize the immune response.

RBCs = assay: Hemolysis in blood of swine after ID Tween 80; format: in vivo, Yorkshire swine; conditions: 6 x 200 ul doses containing 5.0% Tween 80, 31 g x 1.5 mm needle, blood from systemic circulation
Procedure: Tween™ 80 Preferred concentrations avoid hemolysis: Surfactants/detergents can lyse RBCs. Blood from Yorkshire swine that received 6×200 ul doses containing 5.0% Tween™ 80 were collected. No hemolysis was observed was in blood taken immediately from the systemic circulation. A 31 g× 1.5 mm needle was used in the study.

intradermal tissue = assay: Excipient operating profile: maximum concentration with Draize score of 2 or less vs tissue depth (slope m)
Excerpt: The preferred excipients of the invention have a common operating profile in the intradermal space defined by a slope (m) value of greater than 0.125. An exemplary profile for determining the optimal operating profile is depicted in FIG. 35. The slope identifies the change in maximum operating concentration as it relates to tissue depth within the intradermal compartment. […] The concentration of excipient at the first reference point is the highest concentration at the shallowest delivery depth that allows a draize score of 2 or less. […] The concentration of excipient at the second reference point is the highest concentration at the deepest delivery depth that allows a draize score of 2 or less. For example, the distance between the first and second delivery depth can be 2 mm apart and specifically 1 mm and 3 mm deliveries. The operating slope (m) can be described by the following formula: […]
Where C2 equals Cinfinity at D2
Where C1 equals maximum excipient concentration at D1 with a Draize score of 2 or less
Where Dn denotes delivery depth
Tween™ 80 matches the preferred excipient profile. FIG. 35 illustrates an excipient selected for the intradermal tissue according to the instant invention. Tween™ 80 has a profile similar to the “Excipient-A” in the illustration having a slope greater than 0.125. Whereby a 5% v/v soln of Tween™ 80 is at the maximum operating concentration at 1.0 mm depth, and can be used successfully at 10% v/v at the 3 mm depth.

[3] = system: Influenza A/Panama/2007/99 (H3N2); assay: Influenza-specific ELISA titre after ID microneedle immunization of rats with FLUZONE +/- Tween 80; format: in vivo, Brown Norway rats; conditions: 5% Tween80 added to low or high dose FLUZONE
Procedure: Antibody response to FLUZONE™ was measured by coating an influenza antigen (Influenza APR834, purified/inactivated at 2 mg/mL from Charles River SPAFAS or Alternatively New Calcdonia, Panama or B-Hong Kong lysates from Biodesign Inc.) on a microtiter plate (96-well NUNC IMMUNO-PLATE™ with MAXISORP™ surface). The coating solution was approximately 3.8µg/mL of influenza protein in carbonate buffer (Sigma Chemical Co. Cat. C3041). The coating antigen was exposed to the Nunc plate for one hour at 37° C. The coating solution was discarded and replaced with a blocking solution (phosphate buffered saline with Tween™ 20 (PBS-TW20); Sigma Chemical Co. Cat. P-3563) and 5% w/v nonfat dry milk. The blocking solution was exposed to the plate surface for two hours at 37° C. The blocking solution was subsequently discarded.
Female Brown Norway (BN) rats (n=10/group) were immunized by ID delivery using Microneedles (34 gauge needle inserted into a 3.5″ long catheter to an exposed needle length of 1.0 mm). ID delivery by Microneedles consisted of 2 bolus injections of 100 μl by hand to either side of the lower back of the rat, approximately 10 seconds in duration (each bolus), using an attached 1 cc syringe. […]

[4] = system: influenza antigen (Influenza APR834); format: in vivo, Balb/c mice; conditions: ID; for Trend in immune response as indicated by ELISA signal (1:123 serum screening dilution): mice

CCCCCCCC/C=C\CCCCCCCC(=O)OCCOCC(OCCO)C1OCC(OCCO)C1OCCO (centres unmarked) [Tween 80, polysorbate 80]
hemagglutin specific titer vs FLUZONE alone ID and FLUZONE alone IM [1]: outperformed | draize score (swine skin; 2% Tween 80, 3.0 mm delivery, approximately 20-24 hours after administration, Yorkshire swine): 0.0 | tolerability in the ID space (swine skin; 5% Tween 80, swine, 31 g 1.5 mm needle): well tolerated | tolerability (swine skin; 10%, delivered to 1-2 mm depth, Yorkshire swine): not well tolerated | Erythema Draize scores (tolerability) (swine skin; Tween 80 5%, Deoxycholate 0.1%, D-sorbitol 5%, Lutrol 15%, without antigen, 200 ul per injection, 31 gauge 1.5 mm, 1 h and 24 h readings): reasonably well-tolerated | erythema (swine skin; in vivo): moderate to severe erythema | skin reactions as a function of needle depth (swine skin; in vivo): improved with depth | Erythema Draize scores (tolerability) (guinea pig skin): reasonably well-tolerated | increase of mean HAI titre relative to ID delivery of FLUZONE alone ([2]; 5% Tween80 added to low or high dose FLUZONE, ID, rats, H3N2): 5 fold | % Seroconversion (HAI Titre ≧ 10) ([2]; IDHigh (9 ug HA per rat)): 100% | % Seroprotection (HAI Titre ≧ 40) ([2]; IDHigh (9 ug HA per rat)): 100% | % Seroconversion (HAI Titre ≧ 10) ([2]; IDLow (0.9 ug HA per rat)): 100% | % Seroprotection (HAI Titre ≧ 40) ([2]; IDLow (0.9 ug HA per rat)): 90% | hemolysis (RBCs): No hemolysis | maximum operating concentration (intradermal tissue; 1.0 mm depth): 5 % v/v | concentration that can be used successfully (intradermal tissue; 3 mm depth): 10 % v/v | slope (maximum acceptable conc./tissue depth) (intradermal tissue; intradermal tissue, 1.0 mm vs 3 mm depth): greater than 0.125 | increase of mean ELISA titre relative to ID delivery of FLUZONE alone [3]: up to 15 fold | immune response compared to commercial trivalent vaccine delivered IM ([4]; Tween 80 0.9% V/V with trivalent vaccine, 34 g x 1 mm needle, murine model): higher mean titers, higher median titers and higher seroconversion | seroconversion ([4]; Tween 80 at 5% + FLUZONE, Balb/c mice, ELISA with PR8 test antigen): 100% | Trend in immune response as indicated by ELISA signal (1:123 serum screening dilution) ([4]; excipient 0.1% w/v with FLUZONE): 0.829 | Trend in immune response as indicated by ELISA signal (1:123 serum screening dilution) ([4]; excipient 0.3% w/v with FLUZONE): 1.599 | Trend in immune response as indicated by ELISA signal (1:123 serum screening dilution) ([4]; excipient 0.9% w/v with FLUZONE): 2.647
